Experimental data reported in PubChem BioAssay AID2179 (Vanderbilt High Throughput Screening Facility, 2009).
The source made the active and inactive calls. How the calls were made is not given here.

These molecules were tested against Metabotropic glutamate receptor 4 (Rattus norvegicus) (UniProt P31423) (assay: PubChem AID 2179). Settings: HEK/GIRK rat mGluR4, thallium flux, glutamate CRC fold-shift.
Sequence of Metabotropic glutamate receptor 4 (Rattus norvegicus) (P31423 whole entry, looked up): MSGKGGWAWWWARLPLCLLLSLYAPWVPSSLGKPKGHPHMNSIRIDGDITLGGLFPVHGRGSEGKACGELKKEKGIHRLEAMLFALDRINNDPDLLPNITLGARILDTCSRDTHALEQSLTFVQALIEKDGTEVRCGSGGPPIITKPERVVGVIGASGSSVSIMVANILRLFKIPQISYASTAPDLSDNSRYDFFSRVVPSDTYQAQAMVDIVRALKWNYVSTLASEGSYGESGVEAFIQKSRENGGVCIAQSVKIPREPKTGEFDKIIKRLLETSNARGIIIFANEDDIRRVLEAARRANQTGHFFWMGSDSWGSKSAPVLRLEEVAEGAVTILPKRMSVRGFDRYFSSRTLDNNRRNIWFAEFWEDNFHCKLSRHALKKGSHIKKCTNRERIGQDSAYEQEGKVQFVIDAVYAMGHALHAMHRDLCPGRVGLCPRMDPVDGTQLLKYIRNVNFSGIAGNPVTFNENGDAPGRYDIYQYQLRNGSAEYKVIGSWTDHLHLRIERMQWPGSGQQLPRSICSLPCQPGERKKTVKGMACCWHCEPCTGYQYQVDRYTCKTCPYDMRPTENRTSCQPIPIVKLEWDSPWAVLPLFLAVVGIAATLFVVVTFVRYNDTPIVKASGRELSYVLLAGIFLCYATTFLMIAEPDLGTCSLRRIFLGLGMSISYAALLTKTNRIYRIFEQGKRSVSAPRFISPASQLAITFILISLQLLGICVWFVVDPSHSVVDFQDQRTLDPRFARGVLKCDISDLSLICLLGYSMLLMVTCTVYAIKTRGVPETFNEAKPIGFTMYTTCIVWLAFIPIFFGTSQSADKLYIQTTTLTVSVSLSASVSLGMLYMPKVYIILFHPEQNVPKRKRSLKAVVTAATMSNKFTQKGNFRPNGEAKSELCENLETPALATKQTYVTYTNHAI

SMILES | glutamate EC50 in presence of 30 uM compound (lower = stronger potentiation)
COc1ccc(NC(=O)c2ccccn2)cc1Cl | 1180 nM
O=C(Nc1cccc(Cl)c1)c1ccccn1 | 368 nM
COc1cc(NC(=O)c2ccccn2)ccc1F | 409 nM
COc1cc(NC(=O)c2ccccn2)ccc1C | 330 nM

Now from value to molecule:

glutamate EC50 in presence of 30 uM compound (lower = stronger potentiation) | SMILES
307 nM | COc1cc(NC(=O)c2ccccn2)ccc1Cl
5820 nM (inactive) | O=C(Nc1ccc(Cl)c(C(F)(F)F)c1)c1ccccn1
4010 nM (inactive) | O=C(Nc1ccc(F)c(C(F)(F)F)c1)c1ccccn1
